Source: patent US8541476B2, “Compounds for treatment of malignant tumors” (The Trustees of the University of Pennsylvania, priority 2007, dated 2013)

Assays:
[1] = NS-123 toxicity evaluation in nu/nu mice; type: in vivo
Protocol: Female nu/nu (nude) mice (6-8 weeks old; Charles River, Wilmington, Mass.) were maintained at the WFUSM animal facility under conditions approved by the Animal Care and Use Committee. NS-123 in DMSO was mixed with 30% propylene glycol (DMSO concentration<1%) and administered via an i.p. injection at a dose of 50 mg/kg to three mice on three consecutive days. The mice were monitored over 30 days for signs of drug-related toxicity, lethality, and weight loss. Mice were euthanized by CO2 asphyxiation and necropsy was performed by a veterinary pathologist. The heart, lung, liver, spleen, kidney, brain, salivary gland, gastrointestinal tract, ovary, uterus, adrenal gland, and thyroid gland were preserved in 10% neutral buffered formalin for at least 48 hours. The tissues were embedded in paraffin, processed routinely for histology, cut at 4-6 microns, stained with hematoxylin and eosin and examined by light microscopy.
To test this hypothesis, 50 mg/kg (i.p.) was administered to nude mice for 3 consecutive days. Clinical signs of drug toxicity and lethality were not observed over the following 30 days.

[2] = test system: U251 cells transplanted into ZF embryos; test: U251 xenograft ZF model (U251-RFP fluorescence); type: in vivo, Danio rerio
Protocol: ZF were raised in accordance with previously established protocols (McAleer, et al., 2005, J. Radiat. Oncol. Biol. Phys. 61:10-3) at the University of Pennsylvania School of Medicine. Embryos were maintained at 30° C. after transplantation procedures. The age of embryos is indicated as the hours post-fertilization (hpf) and days post-fertilization (dpf) for all experimental data shown. Embryos were either irradiated with 10 Gy or sham-irradiation as previously described (McAleer, et al., 2005, J. Radiat. Oncol. Biol. Phys. 61:10-3) immediately after photography at 24 hpf. Selected embryos were incubated with NS-123 at a concentration of 30 μM for 14 hours before either irradiation or sham-irradiation.
U251 cells were stably transfected with a RFP construct (pDsRed2-C 1; Clontech, Palo Alto, Calif.). Using a Nanoject II microinjector (Drummond Scientific, Broomall, Pa.) 1-100 cells were transplanted into each ZF embryo still in the chorion, from the high stage of their development (approximately 3.5 hpf) to the oblong-sphere stage (approximately 4.5 hpf). The transplantation site was localized either to the blastodisc approximately halfway between the margin and the animal pole or the center of the embryonic yolk sac. Morphological analysis was performed as previously described (Geiger, et al., 2006, Cancer Res. 66:8172-81). Transplanted embryos were examined under a 100× PlanNeofluor objective mounted on a Nikon TE-200 epifluorescence microscope. Images of embryos bearing RFP-positive cells were captured with a Hammamatsu CCD camera controlled with IP LabSpectrum v2.0.1 software (Scanalytics, Inc., Rockville, Md.). Image analysis and pseudocoloring was performed with Kodak Molecular Imaging software v. 4.0.5 (Kodak, Rochester, N.Y.). […]
Human cancer cells can be transplanted into ZF embryos through microinjection (Lee et al., 2005, Dev. Dyn. […]:1560-1570; Haldi et al., 2006, Angiogenesis 9:139-151; Mizgireuv et al., 2006, Cancer Res. 66:3120-3125). […] The embryos were subsequently examined for fluorescence on sequential days following irradiation.

[3] = test system: A549 non-small cell lung cancer cells; test: Clonogenic survival assay, A549 cells; type: cell-based, human; details: A549, 5 μM for 12 hours prior to IR
Protocol: Clonogenic survival assays were performed as described by Koumenis, et al., 2002, (Mol. Cell Biol. 22:7405-16), which reference is incorporated herein in its entirety. U251, HT-29, or A549 cells were plated at different densities in triplicate, treated with NS-123 or DMSO (alone) and irradiated 4, 8, or 12 hours later with a range of doses using ^137Cs γ-rays at a dose rate of ˜4 Gy/minute (min). One hour after irradiation, the medium was replaced with fresh medium without NS-123 or DMSO. The cells were fixed 7-14 days after IR and stained with crystal violet. Colonies greater than 50 cells were then counted and normalized against the non-irradiated controls for each treatment. […] NHA cells were plated in 24-well plates in quadruplicate at equal density, treated with equal volumes of NS-123 or DMSO (alone) and irradiated as described above. One hour after irradiation, the medium was replaced with fresh ABM. Five days later, the MTS assay was used to evaluate cell survival as above.
To exclude the possibility that the radiosensitizing effect of NS-123 was specific to a single cell line, the radiosensitizing effect of NS-123 was tested on additional cell lines of different tissue origin. Clonogenic survival assays were performed. […]

[4] = test system: HT-29 colorectal cancer cells; test: Clonogenic survival assay, HT-29 cells; type: cell-based, human
Protocol: In both cases, cells were pretreated with the compounds or DMSO vehicle control for 4 hours prior to treatment with ionizing radiation at the indicated doses.

CCC(=O)c1ccc(Br)c([N+](=O)[O-])c1 [NS-123, 4′-bromo-3′-nitropropiophenone]
gross and histopathological examination ([1]; female, nu/nu (nude), mouse, in vivo, ip, 50 mg/kg): did not reveal any evidence suggestive of NS-123 associated toxicity | clinical signs of drug toxicity and lethality ([1]; nude mice, 50 mg/kg i.p. 3 consecutive days, 30 days observation): not observed | surviving U251 cells, irradiated in the presence of drug ([2]; NS-123 + 10 Gy IR, 5 dpf): markedly fewer cells | relative fluorescence versus irradiated-only control ([2]; NS-123 + IR, 10 embryos/condition/experiment): faster decrease in luminescence | size of U251 xenografts, drug alone ([2]; NS-123 alone, 3 or 5 dpf): did not have any significant effect on the size | DER at 0.1 survival [3]: 1.4 | DER at 0.5 survival ([4]; HT-29, 5 μM for 12 hours prior to IR): 3.0 | DER at 0.1 survival ([4]; HT-29, pretreatment with NS-123): 3.0
